What all share (format): cell-based, human
Assay [1] concerns normal whole blood. Briefly: Platelet contractile force (PCF) in batroxobin/calcium-clotted whole blood (Hemodyne). Conditions: for PCF: 1200 seconds. Here is the method: (§1) The patients and normal controls in this study were enrolled under a series of protocols approved by the Institutional Review Board for Human Studies of Virginia Commonwealth University. Written consent was obtained from each volunteer. Blood was obtained via aseptic venipuncture into evacuated tubes containing 3.2% sodium citrate.
(§2) Whole blood clot formation was induced by the addition of CaCl2 or a combination of CaCl2 and batroxobin (0.21 μg/ml). Platelet contractile force development and clot elastic modulus were measured for 1200 seconds.
The Hemodyne® hemostasis analyzer (Hemodyne, Inc., Richmond, Va., USA) measures forces generated by platelets within a clot formed between a thermostated cup and parallel upper plate (7,8). Before clotting, the upper plate is centered above the cup and lowered into the sample. As the clot forms, it attaches to the inner walls of the cup and the bottom of the upper plate. The entire sample volume is contained between the upper and lower surfaces. Once fibrin is formed, platelets within the network pull fibrin strands inward transmitting force through the network to the surfaces to which the clot is adherent. Force measurement is accomplished utilizing a transducer coupled to the upper plate. As platelets contract, the transducer produces an electrical output proportional to the amount of force generated. The transducer output is continuously recorded.

Assay [2] deals with normal whole blood. Briefly: Thrombin generation time (TGT), onset of PCF after calcium and batroxobin. Here is the method:
FIG. 1. Determination of the thrombin generation time (TGT) from the kinetics of platelet contractile force (PCF) development after addition of calcium (10 mM final) and batroxobin (0.21 μg/ml final) to 700 μl of citrated (3.2%) whole blood at time zero. The TGT is taken to be the initial inflection point of the PCF curve, ie. the moment the PCF first begins to increase.
as §1, §2
Citrated blood clotted with batroxobin, or other similar enzymes (e.g., reptilase), and calcium develops PCF. […] During this time period, thrombin is generated by re-calcification. Since the fibrin network is in place prior to the generation of thrombin, PCF becomes apparent as soon as a small amount of thrombin is generated (FIG. 1). Thus, the inflection or take off point in the PCF curve serves as a marker of thrombin generation in the batroxobin mediated assay. For ease in identification, the first derivative of the curve in FIG. 1 will provide a sharp break where the curve increases (TGT being at the spike). The instrumentation used for the analysis, such as that shown in FIG. 9, can provide the output of FIG. 1 or the first derivative for identification of TGT, or, alternatively, the output could simply be an indicator light array indicating when the TGT is in the normal range or outside of the normal range.
We designate the time between calcium addition and initial PCF development the Thrombin Generation Time (TGT). Similar results can be obtained without using a snake venom enzyme if one simply recalcifies the plasma sample. Since thrombin generation must be followed by fibrin clot formation before PCF can begin to occur in the recalcification assay, the lag phase tends to be longer and more variable. Similar assays termed reptilase clot retractions were shown in the early seventies to be sensitive to a variety of antiplatelet and anticoagulant agents (10).

Assay [3] relates to normal whole blood. Put plainly: Clot elastic modulus (CEM) in batroxobin/calcium-clotted whole blood (Hemodyne). Conditions: 1200 seconds. Here is the method:
as §1, §2
Clot elastic modulus was measured by applying a downward force of known magnitude to the upper plate of the Hemodyne apparatus (9). The amount of downward displacement caused by the force was measured. The ratio of downward force (stress) to downward displacement (strain) was used to calculate the elastic modulus. Stress equals the force applied divided by the area of application and strain is the degree of shape change induced by the applied force.

The mark [4] stands for this setting: 0.165 U/ml added to normal whole blood.
The mark [5] stands for this setting: 0.330 U/ml added to normal whole blood.
[6] abbreviates: 0.660 U/ml added to normal whole blood.
The mark [7] stands for this setting: 1.320 U/ml added to normal whole blood.
The mark [8] stands for this setting: increasing concentrations in normal whole blood.
Where [9] appears, read: bivalirudin 3.5 μg/ml in normal whole blood.

“Also recorded” adds a separate entry of the source. A value given as a limit tells only on which side of the number the result lay.

With Hirudin, the PCF is listed as 4.01 Kdynes with normal whole blood [1] (setting [4]), 3.57 Kdynes in the assay on normal whole blood [1] (setting [5]), 1.80 Kdynes in the assay with normal whole blood [1] (setting [6]) and 0.70 Kdynes in the assay on normal whole blood [1] (setting [7]). In the assay with normal whole blood [1] (setting [8]), the “Effect on PCF” value is given as “declines; also recorded: reduction”. The TGT with normal whole blood [2] (setting [4]) is 420 s; with normal whole blood [2] (setting [5]), 480 s; with normal whole blood [2] (setting [6]) it was 560 s; in the assay on normal whole blood [2] (setting [7]), greater than 1200 s. Also, the “Effect on TGT” value with normal whole blood [2] (setting [8]) is “prolongs; also recorded: dose depend prolongation”. The CEM in the assay with normal whole blood [3] (setting [4]) was 12.34 Kdynes/cm^2; in the assay with normal whole blood [3] (setting [5]), 11.21 Kdynes/cm^2; in the assay with normal whole blood [3] (setting [6]), 6.50 Kdynes/cm^2; in the assay on normal whole blood [3] (setting [7]), 0.73 Kdynes/cm^2.

bivalirudin: the “Effect on PCF” value in the assay with normal whole blood [1] (setting [9]) is “lower; also recorded: decreases”. In addition, the “Effect on TGT” value in the assay with normal whole blood [2] (setting [9]) is on record as “prolongs”.

Values taken from US7202048B2, “Onset of force development as a marker of thrombin generation” (Hemodyne, Inc., priority 2002, dated 2007).
